# From PMC10030409 (Investigational New Drugs, 2023)
# What was measured:
# [1] = human, in vivo
# Experimental: This prospective, longitudinal observational study was designed and conducted at the Ageo Central General Hospital from February 2019 to July 2020 and Keio University Hospital from June 2020 to April 2022. The primary endpoint was the association of exposures to osimertinib, AZ5104, AZ7550, or germline polymorphisms with AE severity. […] Patients who were mentally or physically incapable of providing informed consent were excluded from the study. […] The study was conducted with adherence to the Declaration of Helsinki.
# clinical [2] = conditions: human, in vivo
# clinical [3] = conditions: human, in vivo; remark: listed apart in the source
# Experimental: Patients were asked to determine the time of drug intake. The collected serum and whole peripheral blood samples were stored at − 80 °C until analysis.
# Several candidate PopPK models with different structures were compared based on the goodness-of-fit (GOF) plots and the objective function value (OFV) expressed as minus twice log likelihood (−2LL), and the difference in OFV between the two nested models was statistically evaluated using the chi-square test (the decrease in −2LL >3.84, p < 0.05, was considered statistically significant).
# Stepwise covariate analysis was performed to evaluate the effect of covariates on clearance and volume of distribution. The significance of the effect was assessed by the −2LL value; decrease in −2LL of >3.84 (p < 0.050) for the forward addition was considered significant. The impact of body weight (BW), albumin (ALB), age (AGE), sex, aspartate aminotransferase (AST), and alanine aminotransferase (ALT) levels on CLparent/F, CLm5/F, and CLm7/F was evaluated. In addition, BW, ALB, AGE, and sex were evaluated on Vparent/F, Vm5/F, and Vm7/F. The covariates were modeled as shown in equation (c) in the power form for continuous covariates, equation (d) with log-transformation for continuous covariates with outliers, and equation (e) for categorical covariates: […]
# The candidate PopPK models were evaluated by goodness of fit, ∆−2LL values, η-shrinkage, and relative standard error (RSE%). […] The uncertainty of the parameters was estimated by performing a bootstrap. The original dataset was randomly resampled to generate 1000 samples, and the parameters estimated from the successful runs were compared to those estimated from the original dataset.
structure (smiles),measurement,setting,value
C=CC(=O)Nc1cc(Nc2nccc(-c3cn(C)c4ccccc34)n2)c(OC)cc1N(C)CCN(C)C [osimertinib],Association of EGFR-TKI treatment line with severe AEs,[1],higher frequency of severe AEs in patients receiving therapy as first-line treatment
same,Severe liver dysfunction within the observation period,[1],No patient
same,Patients who experienced severe AEs (grade 3 or leading to dose discontinuation),[1]; 3 months,Approximately 25%
same,Patients with grade ≥ 2 skin disorders (most prevalent grade ≥ 2 AE),[1]; 3 months,63%
same,Patients with interstitial lung disease leading to treatment discontinuation,[1]; 3 months,2.0%
same,AUC(0-t),clinical [2],5530 ng·h/mL
same,"Clearance CL/F (θ1, θ4, θ6)",clinical [3],17.37 L/h
same,Coefficient of variation for clearance (CL/F),clinical [3],30%
same,"Volume of distribution V/F (θ2, θ5, θ7)",clinical [3],1386 L
same,Vd/F,"clinical [3]; Volume of distribution V/F (θ2, θ5, θ7)",1270 L
